Measurements published in patent publication US9580418B2, “Bicyclic aromatic carboxamide compounds useful as Pim kinase inhibitors” (Incyte Corporation, priority 2014, dated 2017).

Tests used:
pBAD in KMS.12.BM cells = experiment: Pim pBAD signaling assay in KMS.12.BM cells (Example B); assay type: cell-based; conditions: Homo sapiens, 2.5 h incubation, pBAD ELISA
Experimental: KG-1A cells are purchased from ATCC (Manassas, Va.) and KMS.12.BM cells are purchased from NIBIO, JCRB cell bank (Tokyo, Japan) and maintained in the culture mediums recommended, RPMI, 10% FBS and IMDM 20% FBS (Mediatech, Manassas, Va.) respectively. To measure the pBAD inhibitory activity of the compounds, both cell lines are plated with the culture medium (1×10^6/well/100 μL for KG1A and 4×10^5 cells/well/in 100 μL for KMS12BM) into 96-well V bottom polypropylene plates (Matrix, Thermo Fisher, USA) and incubated 30 min. at 37° C. to normalize cell signaling from handling. Test compounds are added at an appropriate concentration range and further incubated for 2.5 h for KMS.12.BM cells and 4 h for KG1-A cells. Plates are centrifuged at 2000 RPM for 10 min. and supernatants aspirated. 100 μL lysis buffer with protease inhibitors (Cell Signaling Technologies, Danver, Mass., Sigma, St Louis Mo., EMD, USA) is added to the pellets, mixed well and set on ice for 30 min. Lysates are frozen overnight at −80° C. To measure the pBAD activity, a Cell Signaling ELISA kit (Cell Signaling Path Scan phosphor pBAD ELISA) is utilized. 50 μL of the lysate is tested per the ELISA protocol and the data analysis is performed by software on a SpectrMax5 plate reader (Molecular Devices, Sunnyvale, Calif.). IC50 determination is performed by fitting the curve of percent inhibition versus the log of the inhibitor concentration using the GraphPad Prism 5.0 software.

Pim-2 = Pim-2 (Homo sapiens (Human), UniProt Q9P1W9); experiment: Pim-2 kinase assay (Pim enzyme assays, Example A); assay type: biochemical; conditions: 1 mM ATP, CREBtide peptide substrate; read-out: PIM2 IC50
Pim-2, sequence (Q9P1W9 whole entry): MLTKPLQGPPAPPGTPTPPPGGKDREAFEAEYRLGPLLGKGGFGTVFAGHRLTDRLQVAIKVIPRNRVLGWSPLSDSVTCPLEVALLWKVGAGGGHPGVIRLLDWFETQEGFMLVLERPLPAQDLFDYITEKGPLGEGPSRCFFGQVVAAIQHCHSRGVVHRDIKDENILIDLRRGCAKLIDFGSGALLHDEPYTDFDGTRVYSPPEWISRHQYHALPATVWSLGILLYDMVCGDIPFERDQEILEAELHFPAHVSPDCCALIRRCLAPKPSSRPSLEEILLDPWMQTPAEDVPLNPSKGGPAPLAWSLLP
Experimental: Pim-2 kinase assay-20 μL reactions were run in white 384 well polystyrene plates dotted with 0.8 μL compound/DMSO in the assay buffer (50 mM Tris, pH 7.5, 0.01% Tween-20, 5 mM mgCl2, 0.01% BSA, 5 mM DTT), containing 0.05 μM Fluorescein-labeled CREBtide peptide substrate (Invitrogen PV3508), 1 mM ATP, and 1 nM enzyme (Invitrogen PV3649) for 2 h at 25° C. Reactions were stopped by addition of 10 μL TR-FRET Dilution Buffer (Invitrogen PV3574) with 30 mM EDTA and 1.5 nM LanthaScreen Tb-CREB pSer133 antibody (Invitrogen PV3566). After 30 min. incubation at room temperature, plates were read on a PHERAstar FS plate reader (BMG Labtech).

Pim-1 = Pim-1 (Homo sapiens (Human), UniProt P11309); experiment: Pim-1 kinase assay (Pim enzyme assays, Example A); assay type: biochemical; conditions: 1 mM ATP, BAD peptide substrate; read-out: PIM1 IC50
Pim-1, sequence (P11309 whole entry): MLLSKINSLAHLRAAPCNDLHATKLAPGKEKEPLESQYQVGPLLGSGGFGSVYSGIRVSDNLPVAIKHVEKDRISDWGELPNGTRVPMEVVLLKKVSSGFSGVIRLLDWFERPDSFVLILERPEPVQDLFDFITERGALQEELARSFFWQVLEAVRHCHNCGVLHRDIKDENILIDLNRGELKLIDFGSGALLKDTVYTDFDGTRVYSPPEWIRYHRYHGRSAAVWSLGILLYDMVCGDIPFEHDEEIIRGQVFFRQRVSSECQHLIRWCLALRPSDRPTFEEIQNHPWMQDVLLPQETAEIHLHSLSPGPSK
Experimental: (§1) Pim-1 and Pim-3 kinase assays-20 μL reactions were run in white 384 well polystyrene plates dotted with 0.8 μL compound/DMSO in the assay buffer (50 mM Tris, pH 7.5, 0.01% Tween-20, 5 mM mgCl2, 0.01% BSA, 5 mM DTT), containing 0.05 μM Biotin-labeled BAD peptide substrate (AnaSpec 62269), 1 mM ATP, and 2.5 pM (Pim-1, Invitrogen PV3503) or 1.25 pM (Pim-3, Millipore 14-738) enzyme for 1 h at 25° C. Reactions were stopped by addition of 10 μL STOP Buffer (150 mM Tris, pH=7.5, 150 mM NaCl, 75 mM EDTA, 0.01% Tween-20, 0.3% BSA,) supplemented with Phospho-Bad (Ser112) Antibody (Cell Signaling 9291) diluted 666-fold, and Streptavidin donor beads (PerkinElmer 6760002) along with Protein-A acceptor beads (PerkinElmer 6760137) at 15 μg/mL each. Supplementation of the STOP buffer with beads and stopping the reactions were done under reduced light. Prior to the stopping reactions STOP buffer with beads was preincubated for 1 h in the dark at room temperature. After stopping the reactions, plates were incubated for 1 h in the dark at room temperature before reading on a PHERAstar FS plate reader (BMG Labtech) under reduced light.

Pim-3 = Pim-3 (Homo sapiens (Human), UniProt Q86V86); experiment: Pim-3 kinase assay (Pim enzyme assays, Example A); assay type: biochemical; conditions: 1 mM ATP, BAD peptide substrate; read-out: PIM3 IC50
Experimental: as §1

Row | Compound | IC50 (pBAD in KMS.12.BM cells) [nM] | IC50 (Pim-2) [nM] | IC50 (Pim-1) [nM] | IC50 (Pim-3) [nM]
1 | N[C@@H]1CN(c2ccncc2NC(=O)c2ccc3ncc(-c4ccc(N5CCOCC5)nc4)cc3n2)C[C@H](C2CC2)[C@H]1O [Example 37, N-{4-[(3R,4R,5S)-3-Amino-5-cyclopropyl-4-hydroxypiperidin-1-yl]pyridin-3-yl}-7-(6-morpholin-4-ylpyridin-3-yl)-1,5-naphthyridine-2-carboxamide] | ≤ 50 | ≤ 100 | ≤ 10 | ≤ 10
2 | CCn1cc(-c2cnc3ccc(C(=O)Nc4cnccc4N4C[C@@H](N)[C@H](O)[C@@H](C5CC5)C4)nc3c2)cn1 [Example 38, N-{4-[(3R,4R,5S)-3-Amino-5-cyclopropyl-4-hydroxypiperidin-1-yl]pyridin-3-yl}-7-(1-ethyl-1H-pyrazol-4-yl)-1,5-naphthyridine-2-carboxamide] | ≤ 50 | ≤ 100 | ≤ 10 | ≤ 10
3 | Cn1cc(-c2cnc3ccc(C(=O)Nc4cnccc4N4C[C@@H](N)[C@H](O)[C@@H](C5CC5)C4)nc3c2)cn1 [Example 39, N-{4-[(3R,4R,5S)-3-Amino-5-cyclopropyl-4-hydroxypiperidin-1-yl]pyridin-3-yl}-7-(1-methyl-1H-pyrazol-4-yl)-1,5-naphthyridine-2-carboxamide] | 50 to 250 | ≤ 100 | ≤ 10 | ≤ 10
4 | N#CC1CCN(c2cnc3ccc(C(=O)Nc4cnccc4N4C[C@@H](N)[C@H](O)[C@@H](C5CC5)C4)nc3c2)CC1 [Example 41, N-{4-[(3R,4R,5S)-3-Amino-5-cyclopropyl-4-hydroxypiperidin-1-yl]pyridin-3-yl}-7-(4-cyanopiperidin-1-yl)-1,5-naphthyridine-2-carboxamide] | 50 to 250 | 1000 to 10000 | 10 to 50 | 10 to 50
5 | N[C@@H]1CN(c2ccncc2NC(=O)c2ccc3ncc(N4CCC5(CCCO5)CC4)cc3n2)C[C@H](C2CC2)[C@H]1O [Example 42, N-{4-[(3R,4R,5S)-3-Amino-5-cyclopropyl-4-hydroxypiperidin-1-yl]pyridin-3-yl}-7-(1-oxa-8-azaspiro[4.5]dec-8-yl)-1,5-naphthyridine-2-carboxamide] | 50 to 250 | 100 to 1000 | ≤ 10 | ≤ 10
6 | C[C@H]1CN(c2ccncc2NC(=O)c2ccc3ccc(-c4cnn(C)c4)cc3n2)C[C@@H](N)[C@@H]1O [Example 43, N-{4-[(3R,4R,5S)-3-Amino-4-hydroxy-5-methylpiperidin-1-yl]pyridin-3-yl}-7-(1-methyl-1H-pyrazol-4-yl)quinoline-2-carboxamide] | ≤ 50 | ≤ 100 | ≤ 10 | ≤ 10
7 | CCn1cc(-c2ccc3ccc(C(=O)Nc4cnccc4N4C[C@@H](N)[C@H](O)[C@@H](C)C4)nc3c2)cn1 [Example 44, N-{4-[(3R,4R,5S)-3-Amino-4-hydroxy-5-methylpiperidin-1-yl]pyridin-3-yl}-7-(1-ethyl-1H-pyrazol-4-yl)quinoline-2-carboxamide] | ≤ 50 | ≤ 100 | ≤ 10 | ≤ 10
8 | COc1ccc(-c2ccc3ccc(C(=O)Nc4cnccc4N4C[C@@H](N)[C@H](O)[C@@H](C)C4)nc3c2)cn1 [Example 45, N-{4-[(3R,4R,5S)-3-Amino-4-hydroxy-5-methylpiperidin-1-yl]pyridin-3-yl}-7-(6-methoxypyridin-3-yl)quinoline-2-carboxamide] | ≤ 50 | ≤ 100 | ≤ 10 | ≤ 10
9 | C[C@H]1CN(c2ccncc2NC(=O)c2ccc3ccc(-c4ccc(N5CCOCC5)nc4)cc3n2)C[C@@H](N)[C@@H]1O [Example 46, N-{4-[(3R,4R,5S)-3-Amino-4-hydroxy-5-methylpiperidin-1-yl]pyridin-3-yl}-7-(6-morpholin-4-ylpyridin-3-yl)quinoline-2-carboxamide] | ≤ 50 | ≤ 100 | ≤ 10 | ≤ 10
